{
  "source": "PubChem BioAssay (NCI)",
  "experiment_in_all_cases": "NCI-60 cell line screen, 48 h",
  "key": {"786-0 renal": {"tested_on": "786-0 renal"}, "A498 renal": {"tested_on": "A498 renal"}, "A549 NSCLC": {"tested_on": "A549 NSCLC"}, "ACHN renal": {"tested_on": "ACHN renal"}, "CAKI-1 renal": {"tested_on": "CAKI-1 renal"}, "CCRF-CEM leukemia": {"tested_on": "CCRF-CEM leukemia"}, "COLO 205 colon": {"tested_on": "COLO 205 colon"}, "DLD-1 colon": {"tested_on": "DLD-1 colon"}, "DMS 114 small cell lung": {"tested_on": "DMS 114 small cell lung"}, "DMS 273 small cell lung": {"tested_on": "DMS 273 small cell lung"}, "EKVX NSCLC": {"tested_on": "EKVX NSCLC"}, "HCC-2998 colon": {"tested_on": "HCC-2998 colon"}, "HCT-116 colon": {"tested_on": "HCT-116 colon"}, "HCT-15 colon": {"tested_on": "HCT-15 colon"}, "HL-60(TB) leukemia": {"tested_on": "HL-60(TB) leukemia"}, "HOP-18 NSCLC": {"tested_on": "HOP-18 NSCLC"}, "HOP-62 NSCLC": {"tested_on": "HOP-62 NSCLC"}, "HOP-92 NSCLC": {"tested_on": "HOP-92 NSCLC"}, "HT29 colon": {"tested_on": "HT29 colon"}, "IGROV1 ovarian": {"tested_on": "IGROV1 ovarian"}, "K-562 leukemia": {"tested_on": "K-562 leukemia"}, "KM12 colon": {"tested_on": "KM12 colon"}, "KM20L2 colon": {"tested_on": "KM20L2 colon"}, "LOX IMVI melanoma": {"tested_on": "LOX IMVI melanoma"}, "LXFL 529 NSCLC": {"tested_on": "LXFL 529 NSCLC"}, "M14 melanoma": {"tested_on": "M14 melanoma"}, "M19-MEL melanoma": {"tested_on": "M19-MEL melanoma"}, "MALME-3M melanoma": {"tested_on": "MALME-3M melanoma"}, "MOLT-4 leukemia": {"tested_on": "MOLT-4 leukemia"}, "NCI-H23 lung": {"tested_on": "NCI-H23 lung"}, "NCI-H460 lung": {"tested_on": "NCI-H460 lung"}, "OVCAR-3 ovarian": {"tested_on": "OVCAR-3 ovarian"}, "OVCAR-4 ovarian": {"tested_on": "OVCAR-4 ovarian"}, "OVCAR-5 ovarian": {"tested_on": "OVCAR-5 ovarian"}, "OVCAR-8 ovarian": {"tested_on": "OVCAR-8 ovarian"}, "RPMI-8226 leukemia": {"tested_on": "RPMI-8226 leukemia"}, "RXF 393 renal": {"tested_on": "RXF 393 renal"}, "SF-268 CNS": {"tested_on": "SF-268 CNS"}, "SF-295 CNS": {"tested_on": "SF-295 CNS"}, "SF-539 CNS": {"tested_on": "SF-539 CNS"}, "SK-MEL-2 melanoma": {"tested_on": "SK-MEL-2 melanoma"}, "SK-MEL-5 melanoma": {"tested_on": "SK-MEL-5 melanoma"}, "SK-OV-3 ovarian": {"tested_on": "SK-OV-3 ovarian"}, "SN12C renal": {"tested_on": "SN12C renal"}, "SNB-19 CNS": {"tested_on": "SNB-19 CNS"}, "SNB-75 CNS": {"tested_on": "SNB-75 CNS"}, "SNB-78 CNS": {"tested_on": "SNB-78 CNS"}, "SW-620 colon": {"tested_on": "SW-620 colon"}, "TK-10 renal": {"tested_on": "TK-10 renal"}, "U251 CNS": {"tested_on": "U251 CNS"}, "UACC-257 melanoma": {"tested_on": "UACC-257 melanoma"}, "UACC-62 melanoma": {"tested_on": "UACC-62 melanoma"}, "UO-31 renal": {"tested_on": "UO-31 renal"}, "XF 498 CNS": {"tested_on": "XF 498 CNS"}},
  "note": "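Where inhibition never reached the appropriate level, the endpoint shown equals the highest concentration tested. Otherwise, values were interpolated linearly from a five-concentration, 48-hour dose response in 96-well plates. TGI marks complete inhibition of growth.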",
  "data": [
    {"smiles": "COC(=O)/C(C)=C/[N+](=O)[O-]", "values": [
      {"measurement": "TGI", "setting": "786-0 renal", "result": 32.3, "unit": "µM"},
      {"measurement": "TGI", "setting": "A498 renal", "result": 43.3, "unit": "µM"},
      {"measurement": "TGI", "setting": "A549 NSCLC", "result": 44.1, "unit": "µM"},
      {"measurement": "TGI", "setting": "ACHN renal", "result": 35.5, "unit": "µM"},
      {"measurement": "TGI", "setting": "CAKI-1 renal", "result": 8.14, "unit": "µM"},
      {"measurement": "TGI", "setting": "CCRF-CEM leukemia", "result": 6.48, "unit": "µM"},
      {"measurement": "TGI", "setting": "COLO 205 colon", "result": 16.6, "unit": "µM"},
      {"measurement": "TGI", "setting": "DLD-1 colon", "result": 4.16, "unit": "µM"},
      {"measurement": "TGI", "setting": "DMS 114 small cell lung", "result": 35.3, "unit": "µM"},
      {"measurement": "TGI", "setting": "DMS 273 small cell lung", "result": 34.6, "unit": "µM"},
      {"measurement": "TGI", "setting": "EKVX NSCLC", "result": 63.6, "unit": "µM"},
      {"measurement": "TGI", "setting": "HCC-2998 colon", "result": 32.1, "unit": "µM"},
      {"measurement": "TGI", "setting": "HCT-116 colon", "result": 20.8, "unit": "µM"},
      {"measurement": "TGI", "setting": "HCT-15 colon", "result": 34.4, "unit": "µM"},
      {"measurement": "TGI", "setting": "HL-60(TB) leukemia", "result": 40.1, "unit": "µM"},
      {"measurement": "TGI", "setting": "HOP-18 NSCLC", "result": 31.9, "unit": "µM"},
      {"measurement": "TGI", "setting": "HOP-62 NSCLC", "result": 57.9, "unit": "µM"},
      {"measurement": "TGI", "setting": "HOP-92 NSCLC", "result": 22.8, "unit": "µM"},
      {"measurement": "TGI", "setting": "HT29 colon", "result": 43.2, "unit": "µM"},
      {"measurement": "TGI", "setting": "IGROV1 ovarian", "result": 44.1, "unit": "µM"},
      {"measurement": "TGI", "setting": "K-562 leukemia", "result": 13.2, "unit": "µM"},
      {"measurement": "TGI", "setting": "KM12 colon", "result": 32.9, "unit": "µM"},
      {"measurement": "TGI", "setting": "KM20L2 colon", "result": 55.5, "unit": "µM"},
      {"measurement": "TGI", "setting": "LOX IMVI melanoma", "result": 38.9, "unit": "µM"},
      {"measurement": "TGI", "setting": "LXFL 529 NSCLC", "result": 27.9, "unit": "µM"},
      {"measurement": "TGI", "setting": "M14 melanoma", "result": 29.2, "unit": "µM"},
      {"measurement": "TGI", "setting": "M19-MEL melanoma", "result": 32.6, "unit": "µM"},
      {"measurement": "TGI", "setting": "MALME-3M melanoma", "result": 31.4, "unit": "µM"},
      {"measurement": "TGI", "setting": "MOLT-4 leukemia", "result": 39.4, "unit": "µM"},
      {"measurement": "TGI", "setting": "NCI-H23 lung", "result": 41.2, "unit": "µM"},
      {"measurement": "TGI", "setting": "NCI-H460 lung", "result": 54.8, "unit": "µM"},
      {"measurement": "TGI", "setting": "OVCAR-3 ovarian", "result": 29.6, "unit": "µM"},
      {"measurement": "TGI", "setting": "OVCAR-4 ovarian", "result": 33.5, "unit": "µM"},
      {"measurement": "TGI", "setting": "OVCAR-5 ovarian", "result": 35.4, "unit": "µM"},
      {"measurement": "TGI", "setting": "OVCAR-8 ovarian", "result": 63.3, "unit": "µM"},
      {"measurement": "TGI", "setting": "RPMI-8226 leukemia", "result": 7.36, "unit": "µM"},
      {"measurement": "TGI", "setting": "RXF 393 renal", "result": 35.6, "unit": "µM"},
      {"measurement": "TGI", "setting": "SF-268 CNS", "result": 51.6, "unit": "µM"},
      {"measurement": "TGI", "setting": "SF-295 CNS", "result": 30.3, "unit": "µM"},
      {"measurement": "TGI", "setting": "SF-539 CNS", "result": 33.2, "unit": "µM"},
      {"measurement": "TGI", "setting": "SK-MEL-2 melanoma", "result": 38.7, "unit": "µM"},
      {"measurement": "TGI", "setting": "SK-MEL-5 melanoma", "result": 47.3, "unit": "µM"},
      {"measurement": "TGI", "setting": "SK-OV-3 ovarian", "result": 33.4, "unit": "µM"},
      {"measurement": "TGI", "setting": "SN12C renal", "result": 41, "unit": "µM"},
      {"measurement": "TGI", "setting": "SNB-19 CNS", "result": 32.9, "unit": "µM"},
      {"measurement": "TGI", "setting": "SNB-75 CNS", "result": 30.1, "unit": "µM"},
      {"measurement": "TGI", "setting": "SNB-78 CNS", "result": 49.8, "unit": "µM"},
      {"measurement": "TGI", "setting": "SW-620 colon", "result": 26.8, "unit": "µM"},
      {"measurement": "TGI", "setting": "TK-10 renal", "result": 31.1, "unit": "µM"},
      {"measurement": "TGI", "setting": "U251 CNS", "result": 32.5, "unit": "µM"},
      {"measurement": "TGI", "setting": "UACC-257 melanoma", "result": 29.3, "unit": "µM"},
      {"measurement": "TGI", "setting": "UACC-62 melanoma", "result": 32.8, "unit": "µM"},
      {"measurement": "TGI", "setting": "UO-31 renal", "result": 33.3, "unit": "µM"},
      {"measurement": "TGI", "setting": "XF 498 CNS", "result": 27.5, "unit": "µM"}
    ]}
  ]
}
